Data taken from patent publication US20240180886A1, “INHIBITORS OF PROTEIN TYROSINE PHOSPHATASE, COMPOSITIONS, AND METHODS OF USE” (BRISTOL-MYERS SQUIBB COMPANY, priority 2022, published 2024).

Columns and labels:
B16-F10 cells = experiment: Cell proliferation assay (CellTiter-Glo) in B16-F10 cells with IFN-gamma; type: cell-based; conditions: 120 h, mouse IFN-gamma 10 ng/mL, read-out: PTPN2 Prolif 5d B16F10 EC50
PTPN2 [1] = target: T1, PTPN2 (Homo sapiens (Human), UniProt P17706); experiment: PhosphoSens assay (PTPN2 BCHEM); type: biochemical; conditions: substrate AQT0264 20 μM, PTPN2 150 pM
Procedure: A PhosphoSens® kinase assay was performed as described by the vendor (AssayQuant Technologies, Marlborough, MA). Briefly, 1000× solutions of compounds were prepared in DMSO via serial dilution of the 10 mM DMSO stocks using 3-fold intervals in a 384-well reagent plate. 50 nL of the compound dilution series was then added to the corresponding wells of a 384-well assay plate. […] Finally, […] of 5× PTPN2 enzyme stock was added to each well of the assay plate for a final enzyme concentration of 150 pM. Reaction progress curves were collected by sampling fluorescence intensity at the excitation wavelength 360 nm (λex360) and emission wavelength 480 nm (λem480) every 71 seconds for one hour using a Synergy H4 plate reader (BioTek Instruments/Agilent Technologies, Winooski, VT) at room temperature.
Target sequence in this assay (P17706 whole entry): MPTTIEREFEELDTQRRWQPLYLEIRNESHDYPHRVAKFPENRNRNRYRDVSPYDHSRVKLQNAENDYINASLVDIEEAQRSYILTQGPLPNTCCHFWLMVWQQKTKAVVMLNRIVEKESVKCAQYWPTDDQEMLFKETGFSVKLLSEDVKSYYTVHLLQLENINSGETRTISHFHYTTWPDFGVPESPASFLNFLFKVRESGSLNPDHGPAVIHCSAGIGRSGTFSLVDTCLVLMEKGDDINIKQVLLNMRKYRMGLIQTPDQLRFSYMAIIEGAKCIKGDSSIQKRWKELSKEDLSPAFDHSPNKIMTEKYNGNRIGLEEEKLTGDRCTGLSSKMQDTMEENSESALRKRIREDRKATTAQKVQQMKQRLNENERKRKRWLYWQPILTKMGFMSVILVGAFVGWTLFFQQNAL

[2] = system: phosphorylated STAT1 in B16-F10 cells; experiment: Phospho-STAT1 (Tyr701) HTRF assay in B16-F10 cells with IFN-gamma; type: cell-based; conditions: mouse IFN-gamma 100 ng/mL, 1 hour, read-out: pSTAT1 HTRF B16F10 EC50
Procedure: B16-F10 cells (ATCC, Manassas, VA, #CRL-6475) were cultured in DMEM growth medium (ThermoFisher Scientific, Waltham, MA, #11995-040) supplemented with 10% heat-inactivated FBS (ThermoFisher Scientific, #16140-071) and 1% pen/strep (ThermoFisher Scientific, #15140-122). The cells were seeded into a white opaque 384-well tissue culture treated microplate (PerkinElmer, Waltham, MA, #6007688) at a density of 10,000 cells/well in 20 uL total volume and incubated overnight at 37 C and 5% CO2. 30 nL of compounds dissolved in DMSO were then transferred from a source plate into target wells with the Echo650 acoustic liquid handler (Beckman Coulter, Indianapolis, IN). Negative control wells received 30 nL of DMSO only (0.15% final concentration). Plates were returned to the incubator for 1 hour and then cells were treated with either 5 uL of growth medium or 5 uL of growth medium containing 500 ng/mL of recombinant mouse IFN-gamma protein (R&D Systems, Minneapolis, MN, #485-MI/CF, 100 ng/mL final concentration) using the Assist automated pipetting platform (INTEGRA Biosciences, Hudson, NH). Plates were incubated at 37 C for 1 hour and assayed for phosphorylated STAT1 protein levels with the phospho-STAT1 (Tyr701) HTRF kit (Cisbio, Bedford, MA, #63ADK026PEH) according to the manufacturer's instructions.

PTPN2 [3] = target: T1, PTPN2; experiment: Phosphatase activity assay using DiFMUP as substrate; type: biochemical; conditions: PTPN2 0.15 nM, 10 mM DTT
Procedure: The PTPN2 biochemical assay was performed as follows, a 5× stock solution of human PTPN2 (SRP5075, MilliporeSigma, Burlington, MA) and a 1.25× stock solution of DiFMUP (D6567, ThermoFisher Scientific, Waltham, MA), were prepared in 1× reaction buffer consisting of 50 mM HEPES, pH 7.4, 1 mM EDTA, 150 mM NaCl, 0.2 mg/mL BSA, 100 U/mL catalase and 10 mM DTT. […] of the DiFMUP substrate solution, for a final concentration of […] DiFMUP substrate, was added to a Corning 3574 384-well, white, non-binding surface microtiter plate containing […] of serially diluted test compounds prepared in DMSO. The reactions were started with the addition of […] of the enzyme solution, for a final PTPN2 concentration of 0.15 nM, and monitored every 105 seconds for 60 minutes at λEX 360/λEM 460 in a BioTek Synergy HTX plate reader (Agilent Technologies, Santa Clara, CA) at room temperature. The initial linear portions of the progress curves were fit according to a linear equation to yield the slopes and converted to % inhibition based on a value of 100% activity for the no inhibitor treated control. IC50 values of each compound were obtained by fitting the % inhibition-compound concentration curves using Dotmatics software (Dotmatics, Bishops Stortford, Hertfordshire, England),
Target sequence in this assay (P17706 other isoform, or with tags, fused parts or gaps isoform P17706-2): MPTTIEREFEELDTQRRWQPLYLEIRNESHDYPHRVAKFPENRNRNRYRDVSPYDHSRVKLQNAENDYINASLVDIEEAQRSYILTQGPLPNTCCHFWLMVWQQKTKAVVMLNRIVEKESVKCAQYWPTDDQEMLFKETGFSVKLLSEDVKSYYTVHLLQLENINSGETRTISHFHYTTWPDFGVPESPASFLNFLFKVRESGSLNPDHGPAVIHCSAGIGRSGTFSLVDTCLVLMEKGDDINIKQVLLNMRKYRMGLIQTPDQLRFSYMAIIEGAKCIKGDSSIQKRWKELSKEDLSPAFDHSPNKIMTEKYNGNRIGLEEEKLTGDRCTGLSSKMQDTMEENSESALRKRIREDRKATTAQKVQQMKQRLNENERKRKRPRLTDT

SMILES	EC50 (B16-F10 cells)	IC50 (PTPN2 [1])	EC50 [2]	IC50 (PTPN2 [3])
Cc1ccnc(NCc2cc(O)c(N3CC(=O)NS3(=O)=O)c(F)c2)c1 [EXAMPLE 7, 5-[2-fluoro-6-hydroxy-4-[[(4-methyl-2-pyridyl)amino]methyl]phenyl]-1,1-dioxo-1,2,5-thiadiazolidin-3-one]	170 nM	5 nM	180 nM	3 nM
CCc1ccnc(NCc2cc(O)c(N3CC(=O)NS3(=O)=O)c(F)c2)c1 [EXAMPLE 13, 5-[4-[[(4-ethyl-2-pyridyl)amino]methyl]-2-fluoro-6-hydroxy-phenyl]-1,1-dioxo-1,2,5-thiadiazolidin-3-one]	230 nM	2 nM	260 nM	6 nM
CCc1cccnc1NCc1cc(O)c(N2CC(=O)NS2(=O)=O)c(F)c1 [EXAMPLE 23, 5-[4-[[(3-ethyl-2-pyridyl)amino]methyl]-2-fluoro-6-hydroxy-phenyl]-1,1-dioxo-1,2,5-thiadiazolidin-3-one]	14100 nM	30 nM	1510 nM	510 nM
CC(C)c1ccc(NCc2cc(O)c(N3CC(=O)NS3(=O)=O)c(F)c2)nc1 [EXAMPLE 45, 5-[2-fluoro-6-hydroxy-4-[[(5-isopropyl-2-pyridyl)amino]methyl]phenyl]-1,1-dioxo-1,2,5-thiadiazolidin-3-one]	1770 nM	7 nM	1490 nM	60 nM
CC(C)(C)c1ccc(NCc2cc(O)c(N3CC(=O)NS3(=O)=O)c(F)c2)nc1 [EXAMPLE 4, 5-[4-[[(5-tert-butyl-2-pyridyl)amino]methyl]-2-fluoro-6-hydroxy-phenyl]-1,1-dioxo-1,2,5-thiadiazolidin-3-one]	670 nM	30 nM	1030 nM	8 nM
O=C1CN(c2c(O)cc(CNc3ccccn3)cc2F)S(=O)(=O)N1 [EXAMPLE 37, 5-[2-fluoro-6-hydroxy-4-[(2-pyridylamino)methyl]phenyl]-1,1-dioxo-1,2,5-thiadiazolidin-3-one]	1260 nM	30 nM	450 nM	70 nM
O=C1CN(c2c(O)cc(CNc3cc(OC4CC4)ccn3)cc2F)S(=O)(=O)N1 [EXAMPLE 6, 5-[4-[[[4-(cyclopropoxy)-2-pyridyl]amino]methyl]-2-fluoro-6-hydroxy-phenyl]-1,1-dioxo-1,2,5-thiadiazolidin-3-one]	170 nM	3 nM	140 nM	10 nM
Cc1cc(C)nc(NCc2cc(O)c(N3CC(=O)NS3(=O)=O)c(F)c2)c1 [EXAMPLE 5, 5-[4-[[(4,6-dimethyl-2-pyridyl)amino]methyl]-2-fluoro-6-hydroxy-phenyl]-1,1-dioxo-1,2,5-thiadiazolidin-3-one]	50 nM	1 nM	30 nM	1 nM
COc1ccc(C)nc1NCc1cc(O)c(N2CC(=O)NS2(=O)=O)c(F)c1 [EXAMPLE 22, 5-[2-fluoro-6-hydroxy-4-[[(3-methoxy-6-methyl-2-pyridyl)amino]methyl]phenyl]-1,1-dioxo-1,2,5-thiadiazolidin-3-one]	2470 nM	80 nM	2970 nM	170 nM
O=C1CN(c2c(O)cc(CNc3ccc(OCc4ccccc4)cn3)cc2F)S(=O)(=O)N1 [EXAMPLE 47, 5-[4-[[(5-benzyloxy-2-pyridyl)amino]methyl]-2-fluoro-6-hydroxy-phenyl]-1,1-dioxo-1,2,5-thiadiazolidin-3-one]	13300 nM	40 nM	6360 nM	1460 nM
COc1ccnc(NCc2cc(O)c(N3CC(=O)NS3(=O)=O)c(F)c2)c1 [EXAMPLE 12, 5-[2-fluoro-6-hydroxy-4-[[(4-methoxy-2-pyridyl)amino]methyl]phenyl]-1,1-dioxo-1,2,5-thiadiazolidin-3-one]	140 nM	10 nM	90 nM	10 nM
Cc1cccc(NCc2cc(O)c(N3CC(=O)NS3(=O)=O)c(F)c2)n1 [EXAMPLE 17, 5-[2-fluoro-6-hydroxy-4-[[(6-methyl-2-pyridyl)amino]methyl]phenyl]-1,1-dioxo-1,2,5-thiadiazolidin-3-one]	160 nM	1 nM	80 nM	4 nM
Cc1cccnc1NCc1cc(O)c(N2CC(=O)NS2(=O)=O)c(F)c1 [EXAMPLE 15, 5-[2-fluoro-6-hydroxy-4-[[(3-methyl-2-pyridyl)amino]methyl]phenyl]-1,1-dioxo-1,2,5-thiadiazolidin-3-one]	6480 nM	110 nM	5020 nM	460 nM
Cc1cnc(NCc2cc(O)c(N3CC(=O)NS3(=O)=O)c(F)c2)cc1C [EXAMPLE 28, 5-[4-[[(4,5-dimethyl-2-pyridyl)amino]methyl]-2-fluoro-6-hydroxy-phenyl]-1,1-dioxo-1,2,5-thiadiazolidin-3-one]	280 nM	1 nM	130 nM	2 nM

Results, then the molecule that gave them:

EC50 (B16-F10 cells)	IC50 (PTPN2 [1])	EC50 [2]	IC50 (PTPN2 [3])	SMILES
8660 nM	80 nM	11600 nM	20 nM	COc1cccc(NCc2cc(O)c(N3CC(=O)NS3(=O)=O)c(F)c2)n1 [EXAMPLE 35, 5-[2-fluoro-6-hydroxy-4-[[(6-methoxy-2-pyridyl)amino]methyl]phenyl]-1,1-dioxo-1,2,5-thiadiazolidin-3-one]
4560 nM	100 nM	5400 nM	80 nM	Cc1cnc(NCc2cc(O)c(N3CC(=O)NS3(=O)=O)c(F)c2)c(C)c1 [EXAMPLE 24, 5-[4-[[(3,5-dimethyl-2-pyridyl)amino]methyl]-2-fluoro-6-hydroxy-phenyl]-1,1-dioxo-1,2,5-thiadiazolidin-3-one]
580 nM	6 nM	260 nM	1 nM	O=C1CN(c2c(O)cc(CNc3cc(C4CC4)ccn3)cc2F)S(=O)(=O)N1 [EXAMPLE 1, 5-[4-[[(4-cyclopropyl-2-pyridyl)amino]methyl]-2-fluoro-6-hydroxy-phenyl]-1,1-dioxo-1,2,5-thiadiazolidin-3-one]
4550 nM	30 nM	2340 nM	50 nM	Cc1cc(NCc2cc(O)c(N3CC(=O)NS3(=O)=O)c(F)c2)ncc1C#N [EXAMPLE 32, 6-[[3-fluoro-5-hydroxy-4-(1,1,4-trioxo-1,2,5-thiadiazolidin-2-yl)phenyl]methylamino]-4-methyl-pyridine-3-carbonitrile]
> 15000 nM	816 nM	> 15000 nM	3240 nM	O=C1CN(c2c(O)cc(CN(c3ccc(C(F)(F)F)cn3)C3CC3)cc2F)S(=O)(=O)N1 [EXAMPLE 50, 5-(4-((cyclopropyl(5-(trifluoromethyl)pyridin-2-yl)amino)methyl)-2-fluoro-6-hydroxyphenyl)-1,2,5-thiadiazolidin-3-one 1,1-dioxide]
7670 nM	90 nM	10200 nM	130 nM	Cc1ccnc(NCc2cc(O)c(N3CC(=O)NS3(=O)=O)c(F)c2)c1C [EXAMPLE 25, 5-[4-[[(3,4-dimethyl-2-pyridyl)amino]methyl]-2-fluoro-6-hydroxy-phenyl]-1,1-dioxo-1,2,5-thiadiazolidin-3-one]
